Reference: US20230218774A1, “DRUG ANTIBODY CONJUGATES” (PHARMA MAR, S.A., priority 2019, published 2023)
Several values for one entry are separate records, joined by “and”; a condition that tells them apart may be missing. Equal entries are not always repeated.

Key:
Type in all cases: cell-based
[1] = system: SK-BR-3 (breast cancer, HER2+); experiment: SRB colorimetric cytotoxicity assay, SK-BR-3; conditions: Homo sapiens, SK-BR-3, 72 h
Excerpt: (§1) The aim of the assay was to evaluate the in vitro cytostatic (ability to delay or arrest tumor cell growth) or cytotoxic (ability to kill tumor cells) activity of the samples being tested.
(§2) The following human tumor cell lines were obtained from the American Type Culture Collection (ATCC): SK-BR-3 (ATCC HB-30), HCC-1954 (ATCC CRL-2338) (both being breast cancer, HER2+), MDA-MB-231 (ATCC HTB-26), MCF-7 (ATCC HTB-22) (both being breast cancer, HER2−).
(§3) For SK-BR-3, HCC-1954, MDA-MB-231 and MCF-7 cells, a colorimetric assay using Sulforhodamine B (SRB) was adapted for quantitative measurement of cell growth and cytotoxicity, as described by V. Vichai and K. Kirtikara. In “Sulforhodamine B colorimetric assay for cytotoxicity screening”, Nature Protocols, 2006, 1: 1112-1116. Briefly, cells were seeded in 96-well microtiter plates and allowed to stand for 24 hours in drug-free medium before treatment with vehicle alone or with the tested substances for 72 hours. For quantification, cells were washed twice with phosphate buffered saline (PBS), fixed for 15 min in 1% glutaraldehyde solution, rinsed twice with PBS, stained in 0.4% (w/v) SRB with 1% (v/v) acetic acid solution for 30 min, rinsed several times with 1% acetic acid solution and air-dried.
(§4) Cell survival was expressed in all cases as percentage of control, untreated cell survival. […]

[2] = system: HCC-1954 (breast cancer, HER2+); experiment: SRB colorimetric cytotoxicity assay, HCC-1954; conditions: Homo sapiens, HCC1954, 72 h
Excerpt: as §1, §2, §3, §4

[3] = system: MDA-MB-231 (breast cancer, HER2−); experiment: SRB colorimetric cytotoxicity assay, MDA-MB-231; conditions: Homo sapiens, MDA-MB-231, 72 h
Excerpt: as §1, §2, §3, §4

[4] = system: MCF-7 (breast cancer, HER2−); experiment: SRB colorimetric cytotoxicity assay, MCF-7; conditions: Homo sapiens, MCF7, 72 h
Excerpt: as §1, §2, §3, §4

## C=C1C[C@](OC)([C@H](O)C(=O)N[C@@H](OC)[C@@H]2C[C@@H](O)C(C)(C)[C@@H](C[C@@H](COC(=O)NCCCNC(=O)CCCCCN3C(=O)C=CC3=O)OC)O2)O[C@H](C)[C@@H]1C (racemic) [DL-2]
[1]
  IC50: 0.108 µg/mL and 138 nM
[2]
  IC50: 0.076 µg/mL and 97.1 nM
[3]
  IC50: 0.0652 µg/mL and 83.3 nM
[4]
  IC50: 0.0759 µg/mL and 97 nM
